Assay results reported in patent US7666642B2, “Nematode fatty acid desaturase-like sequences” (Divergence, Inc., priority 2001, dated 2010).
Where two headings read alike, the source gives them in different places.

Columns and labels:
[1] = tested on: everted hamster jejunal and ileal segments; conditions: cited from earlier work
[2] = tested on: isolated intestinal epithelial cells; conditions: cited from earlier work
[3] = tested on: Δ9 fatty acid desaturases; conditions: cited from earlier work
plants [4] = conditions: in vivo
C. elegans [5] = assay: Inhibitor studies: C. elegans cultures on NGM plates containing fatty acid methyl esters; assay type: in vivo; conditions: for Lifecycle impairments of C. elegans cultures: methyl ester on NGM plates with OP50 E. coli
Excerpt: Vernolic acid and ricinoleic acid are naturally occurring plant-produced fatty acid homologs that we predict to be specific inhibitors of Δ12 FAT enzymes. The addition of these compounds to living cultures of C. elegans is expected to mimic the effects of the Δ12 FAT RNAi experiments since, in each case, the phenotype observed should derive from the inhibition of the nematode Δ12 FAT. To explore this possibility, C. elegans cultures were started from eggs on NGM plates containing their E. coli food source and one of either 3 mM ricinolcic acid methyl ester or 3 mM vernolic acid methyl ester. Total eggs layed and hatch-rates of F1 and F2 individuals were followed and compared to nematode cultures grown in the presence of control fatty acids oleic acid methyl ester and linoleic acid methyl ester. C. elegans L4 larvae were added to NGM plates containing OP50 E. coli and one of the following methyl esters: oleic acid, linolcic acid, ricinoleic acid, vernolic acid or none. C. elegans L4 larvae growing on plates containing ricinoleic acid (FIG. 11) or vernolic acid (FIG. 12) methyl esters developed to mature adults more slowly than those on control plates containing oleic acid (FIG. 9) or linoleic acid (FIG. 10) and produced very few embryos (eggs).

C. elegans [6] = assay: Rescue of C. elegans Δ12 FAT RNAi feeding phenotype by fatty acid methyl esters; assay type: in vivo; conditions: 3 mM added to the NGM media
Excerpt: RNAi by feeding: C. elegans can be grown on lawns of E. coli genetically engineered to produce double stranded RNA (dsRNA) designed to inhibit Δ12 FAT expression. Briefly, E. coli were transformed with a genomic fragment of a portion of the C. elegans Δ12 FAT gene sequence, specifically a fragment 651 nucleotides long, containing the entire first exon and terminating just before the conserved intron splice junction between the first exon and first intron. This construct encodes approximately the first 217 amino acids of the C. clegans Δ12 FAT gene. The 651 nucleotide genomic fragment was cloned into an E. coli expression vector between opposing T7 polymerase promoters. The clone was then transformed into a strain of E. coli that carries an IPTG-inducible T7 polymerase. As a control, E. coli was transformed with a gene encoding the Green Fluorescent Protein (GFP).
Feeding RNAi was initiated from C. elegans eggs or from C. elegans L4s.
The C. elegans Δ12 fatty acid desaturase (Fat2 protein) converts the mono-unsaturated oleic acid to the di-unsaturated fatty acid linoleic acid. The […] FAT RNAi prevents expression of the Δ12 fatty acid desaturase, which is predicted to cause a decrease in levels of linoleic acid in the nematode, leading to arrested development and death.

plants [7] = assay: Toxicity to plants (phytotoxicity); conditions: at least some plants
[8] = 3 mM methyl ester on NGM plates with OP50 E. coli

CCCCCC[C@@H](O)C/C=C\CCCCCCCC(=O)O [Ricinoleic acid, reference compound]
Effect on water and electrolyte absorption [1]: inhibitory effect | Cytotoxicity [2]: cytotoxic

CCCCCCCCC1=C(CCCCCCCC(=O)O)C1 [Sterculic acid]
Inhibition of Δ9 fatty acid desaturases [3]: potent inhibitor

CCCCCC#CC/C=C\CCCCCCCC(=O)OC [crepenynic acid methyl ester]
Toxicity to plants (plants [4]): do not appear to be toxic (or are very much less toxic)

CCCCC/C=C\C/C=C\CCCCCCCC(=O)OC [linoleic acid methyl ester, reference compound]
Lifecycle impairments of C. elegans cultures (C. elegans [5]): no dramatic lifecycle impairments | Rescue of the Δ12 FAT RNAi feeding phenotype (C. elegans [6]): partial rescue

CCCCCCCCC1=C(CCCCCCC(=O)O)C1 [malvalate]
Inhibition of Δ9 fatty acid desaturases [3]: equally inhibitory

CCCCCCCC/C=C\CCCCCCCC(=O)OC [oleic acid methyl ester, reference compound]
Lifecycle impairments of C. elegans cultures (C. elegans [5]): no dramatic lifecycle impairments | Rescue of the Δ12 FAT RNAi feeding phenotype (C. elegans [6]): does not rescue

CCCCCC[C@@H](O)C/C=C/CCCCCCCC(=O)OC [ricinelaidic acid methyl ester]
Toxicity to plants (plants [7]): do not appear to be toxic (or are very much less toxic)

CCCCCC[C@@H](O)C/C=C\CCCCCCCC(=O)OC [ricinoleic acid methyl ester]
Toxicity to plants (plants [7]): do not appear to be toxic (or are very much less toxic) | Embryos (eggs) produced (C. elegans [5]; [8]): very few | Phenotype of young larvae from embryos that hatched (C. elegans [5]; [8]): severe arrested phenotypes and did not develop to adults | Development of L4 larvae to mature adults (C. elegans [5]; 3 mM methyl ester on NGM plates with OP50 E. coli, compared with oleic or linoleic acid control plates): more slowly | Nematicidal activity (C. elegans [5]; methyl esters of fatty acid analogs): nematicidal | Effect on water and electrolyte absorption [1]: ineffective
